Source: paper PMC11359702, “Synthesis and Biochemical Evaluation of Ethanoanthracenes and Related Compounds: Antiproliferative and Pro-Apoptotic Effects in Chronic Lymphocytic Leukemia (CLL)” (Pharmaceuticals, 2024)
Like-named read-outs stand apart in the source and are kept apart here.

What was measured:
[1] = tested on: 786-0; experiment: NCI-60 five-dose assay; assay type: cell-based, human
Description: (§1) A number of our most promising compounds identified through preliminary cell viability testing (23c, 23d, 23f, 23h, 23l, 23m, 23n, 23o, 24f, 24l, 25n and 26n) were selected for NCI drug screening in the 60-cell-line panel. The panel includes nine subcategories based on cancer tissue types, which include leukemia, ovarian, central nervous system, breast, lung, prostate, skin, renal and colon cancer. The compounds were initially assessed in a one-dose assay at a fixed treatment concentration of 10 µM. The compounds selected for further investigation were progressed to a five-dose assay across the concentration ranges of 0.01, 0.1, 1, 10 and 100 µM [72]. The endpoints assessed in the screening protocol were GI50, TGI and LC50 [72].

[2] = tested on: A498; experiment: NCI-60 five-dose assay; assay type: cell-based, human
Description: as §1

[3] = tested on: COLO205; experiment: NCI-60 five-dose assay; assay type: cell-based, human
Description: as §1

[4] = tested on: DU-145; experiment: NCI-60 five-dose assay; assay type: cell-based, human
Description: as §1

[5] = tested on: MDA-MB-435; experiment: NCI-60 five-dose assay; assay type: cell-based, human
Description: as §1

[6] = tested on: NCI-H332M; experiment: NCI-60 five-dose assay; assay type: cell-based, human
Description: as §1

[7] = tested on: OVCAR-3; experiment: NCI-60 five-dose assay; assay type: cell-based, human
Description: as §1

[8] = tested on: OVCAR-8; experiment: NCI-60 five-dose assay; assay type: cell-based, human
Description: as §1

[9] = tested on: SK-MEL-2; experiment: NCI-60 five-dose assay; assay type: cell-based, human
Description: as §1

[10] = tested on: SK-MEL-5; experiment: NCI-60 five-dose assay; assay type: cell-based, human
Description: as §1

[11] = tested on: SN12C; experiment: NCI-60 five-dose assay; assay type: cell-based, human
Description: as §1

[12] = tested on: U251; experiment: NCI-60 five-dose assay; assay type: cell-based, human
Description: as §1

[13] = tested on: K-562; experiment: NCI-60 five-dose assay; assay type: cell-based, human
[14] = tested on: NCI 60 cancer cell line panel; experiment: NCI-60 five-dose assay, full-panel means; assay type: cell-based
How it was run: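 Within the NCI 60-cell-line panel, compounds first passing a single-dose screen at 10 µM were tested at five concentrations: 0.01, 0.1, 1, 10 and 100 µM. Endpoints derived were GI50, TGI and LC50.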

[15] = tested on: CCRF-CEM; experiment: NCI-60 five-dose assay; assay type: cell-based, human
[16] = tested on: SR; experiment: NCI-60 five-dose assay; assay type: cell-based, human
[17] = tested on: HG-3 cells; experiment: LDH cytotoxicity assay (CytoTox 96); assay type: cell-based; conditions: HG-3, 10 µM, 24 h, lysis solution = 100%
Text: (§2) The lactate dehydrogenase (LDH) assay is used to assess the membrane integrity of cells as a function of the cytoplasmic LDH released. The loss of cell membrane integrity (due to cytotoxic insult) is detectable through LDH release into the cell growth medium. The assay is initiated via the reduction in cellular co-factor NAD^+ to NADH catalyzed via the LDH enzyme. Newly formed NADH catalyzes the acidic reduction in iodonitrotetrazolium chloride (INT) to the highly colored formazan (red) (mediated via the diaphorase enzyme). […] At the 10-µM treatment concentration, mild to moderate cytotoxicity (19–47%) was observed. […] Cytotoxicity remained low to mild at 1 µM (4–18%) with 23a displaying the lowest LDH release (4%).
(§3) Following the treatment of the HG-3 and PGA-1 cells at 10 µM for 24 hr, the amount of LDH released was determined using an LDH assay kit from Promega (G1780). Cell lysis solution = 100% cell lysis and LDH release). Data are presented as % cell death at a concentration of 10 µM. Cells were treated with ethanoanthracene compounds 20a, 20f, 23a and 25n (1 µM and 10 µM) for 24 h. Values are shown as the mean of three independent experiments.
(§4) The cytotoxicity of the selected compounds 20a, 20f, 23a and 25n was determined using the CytoTox 96 non-radioactive cytotoxicity assay (Promega Corporation; 2800 Woods Hollow Road, Madison, WI, USA). CLL cells HG-3 and PGA-1 were incubated for 24 h and then treated with the selected compounds 20a, 20f, 23a and 25n at 10-µM and 1-µM concentrations, following the protocol outlined above in the cell viability assay. After 24 h, the lysis solution (10×) (20 µL) was added, and the cells were incubated for a further 1 h to ensure complete cell death. Supernatant (50 µL) was removed from each well and transferred to a clean 96-well plate. “Substrate mix” (50 µL) was added, and the plate was stored in the dark at 20 °C for 30 min. “Stop solution” (50 µL) was added to each well, and the absorbance at 490 nm was recorded using a Dynatech MR5000 plate reader; the % cell death was determined relative to the control cell lysis solution.

[18] = tested on: PGA-1 cells; experiment: LDH cytotoxicity assay (CytoTox 96); assay type: cell-based; conditions: 24 h
Text: as §2, §3, §4

[19] = tested on: healthy-donor peripheral blood mononuclear cells (PBMCs); experiment: Annexin V/PI assay in donor PBMCs; assay type: cell-based; conditions: 48 h
Text: Whole blood samples from healthy donors (×5) were isolated, prepared and treated following the protocol previously described. The percentage of apoptosis observed in the treatment of isolated donor PBMCs with nitrovinylethanoanthracene 20a is concentration-dependent (Figure 11A). […] For ethanoanthracene 23a, the percentage of total apoptosis observed is illustrated in Figure 11B. […] The percentage of total apoptosis observed in the treatment of isolated donor PBMCs with the anthracene–chalcone 25n (normalized against vehicle 0.5% v/v DMSO) is illustrated in Figure 11C, and the dose-response behavior was also concentration-dependent, with compound 25n moderately toxic to healthy-donor PBMCs when treated at a 5.00 µM concentration (39%).
The human peripheral blood mononuclear cells (PBMCs) were generated as follows: peripheral blood was obtained from healthy donors (n = 2) after informed consent was received. The blood was then placed into a 50-mL falcon tube and diluted with an equal volume of phosphate-buffered saline (PBS). PBMCs were isolated using density-gradient centrifugation with LymphoPrep, as described previously. The cells were resuspended in RPMI media containing 10% FBS and 1% penicillin/streptomycin (P/S). The cells were counted using a haemocytometer and seeded into 96 well plates at a density of 1 × 10^5 cells/well (200 µL), and they were incubated at 37 °C for 1 h prior to compound treatment. The Annexin V/PI assay was used as a preliminary method of assessing the selective toxicity of the above compounds when compared with a previous alamarBlue cell viability assay in CLL cell lines. The assay was carried out as described above for the Annexin V/PI assay previously described above, and it was completed in triplicate on two independent days. Approval for this study was obtained from the School of Pharmacy and Pharmaceutical Sciences Trinity College Dublin Research Ethics Committee (2020-06-01-MS).

[20] = Homo sapiens, mean over NCI 60 cell line panel, read-out: Mean GI50 (MID GI50, full-panel mean-graph mid-point)
[21] = Homo sapiens, mean over NCI 60 cell line panel, read-out: Mean LC50 (MID LC50)
[22] = mean over NCI 60 cell line panel

SMILES | GI50 ([1]; Homo sapiens) [µM] | GI50 ([2]; Homo sapiens) [µM] | GI50 ([3]; Homo sapiens, COLO 205) [µM] | GI50 ([4]; Homo sapiens) [µM] | GI50 ([5]; Homo sapiens) [µM] | GI50 ([6]; Homo sapiens) [µM] | GI50 ([7]; Homo sapiens) [µM] | GI50 ([8]; Homo sapiens) [µM] | GI50 ([9]; Homo sapiens) [µM] | GI50 ([10]; Homo sapiens) [µM] | GI50 ([11]; Homo sapiens) [µM] | GI50 ([12]; Homo sapiens, U-251) [µM] | GI50 ([13]; Homo sapiens, K562, K-562) [µM] | GI50 ([13]; K-562) [µM] | GI50 [14, 20] [µM] | CC50 [14, 21] [µM] | Mean TGI (MID TGI, total growth inhibition) [14, 22] [µM] | GI50 [15] [µM] | GI50 [16] [µM] | LDH release (cytotoxicity, % cell death) [17] [%] | also measured
O=C(/C=C/C12c3ccccc3C(c3ccccc31)C1C(=O)NC(=O)C12)c1ccc(F)cc1 (racemic) [Compound 23h] | 2.44 | 1.16 | 1.79 | 1.77 | 1.93 | 2.64 | 1.44 | 1.43 | 2.48 | 1.95 | 2.34 | 1.84 | 1.42 | 1.55 | 1.7 | 14.5 | 4.265 |  |  |  | 
O=C(/C=C/C12c3ccccc3C(c3ccccc31)C1C(=O)NC(=O)C12)c1ccc(Cl)cc1 (racemic) [Compound 23l, (E)-9-(3-(4-Chlorophenyl)-3-oxoprop-1-en-1-yl)-9,10-dihydro-9,10-[3,4]epipyrroloanthracene-12,14-dione] |  |  |  |  |  |  |  |  |  |  |  |  |  | 1.99 |  |  | 4.265 | 1.66 | 2.15 |  | GI50 [1]: 1.73 µM; GI50 [2]: 1.28 µM; GI50 [3]: 1.91 µM; GI50 [4]: 1.67 µM; GI50 [5]: 1.68 µM; GI50 [6]: 1.42 µM; GI50 [7]: 1.63 µM; GI50 [8]: 1.13 µM; GI50 [9]: 1.81 µM; GI50 [10]: 1.7 µM; GI50 [11]: 1.56 µM; GI50 [12]: 1.52 µM; CC50 [14]: 13.2 µM; GI50 ([14]; mean over NCI 60 cell line panel, read-out: Mean GI50 (MID GI50, full-panel mean-graph mid-point)): 1.62 µM
O=C(C=CC12c3ccccc3C(c3ccccc31)C1C(=O)NC(=O)C12)c1ccc(Br)cc1 (stereo not drawn) [Compound 23a, 9-(E)-3-(4-Bromophenyl)-3-oxoprop-1-en-1-yl)-9,10-dihydro-9,10-[3,4]epipyrroloanthracene-12,14-dione] |  |  |  |  |  |  |  |  |  |  |  |  |  |  |  |  |  |  |  | 25 | LDH release (cytotoxicity, % cell death) ([18]; PGA-1, 1 µM): 4%; LDH release (cytotoxicity, % cell death) ([18]; PGA-1, 10 µM): 23%; total apoptosis (toxicity) in healthy-donor PBMCs ([19]; 5 µM): 28%; total apoptosis (toxicity) in healthy-donor PBMCs ([19]; 1.25–2.5 µM): 5–14%
O=C(C=CC12c3ccccc3C(c3ccccc31)C1C(=O)N(c3ccc(Cl)cc3)C(=O)C12)c1ccccn1 (stereo not drawn) [Compound 25n, (E)-13-(4-Chlorophenyl)-9-(3-oxo-3-(pyridin-2-yl)prop-1-en-1-yl)-9,10-dihydro-9,10-[3,4]epipyrroloanthracene-12,14-dione] | 0.216 | 0.539 | 1.16 | 0.41 | 0.298 | 0.821 | 0.222 | 0.409 | 0.67 | 1.08 | 0.415 | 0.358 | 0.29 | 0.293 | 0.245 | 18.6 |  | 0.321 | 0.284 | 47 | GI50 ([15]; Homo sapiens): 0.32 µM; GI50 ([16]; Homo sapiens): 0.28 µM; GI50 ([14]; Homo sapiens, heatmap Figure 8, concentration in molar, read-out: Log 10 GI-50 Mean (converted)): 0.389 µM; IC50 ([14]; Homo sapiens, heatmap Figure 8, concentration in molar, read-out: Log 10 IC-50 Mean (converted)): 0.741 µM; CC50 ([14]; Homo sapiens, heatmap Figure 8, concentration in molar, read-out: Log 10 LC-50 Mean (converted)): 41.7 µM; LDH release (cytotoxicity, % cell death) ([18]; PGA-1, 10 µM): 15%; total apoptosis (toxicity) in healthy-donor PBMCs ([19]; 5 µM): 39%
